From patent US10570184B2, “GLP-1/glucagon receptor co-agonists for medical use” (Novo Nordisk A/S, priority 2014, dated 2020)
Starred links: 1 amine or outer side, 2 acyl side, 3 side chain; linkers in the order of their positions; H or OH if unused. Non-standard residues stand in square brackets, D forms with d. Residues, ends and D or L forms follow the SMILES beside them. Groups on a side chain read outwards from the residue. *: point of attachment. C18 diacid = O=C(O)CCCCCCCCCCCCCCCCC(=O)*; γGlu = O=C(O)[C@H](CCC(=O)[*:2])N[*:1]; Ac4c = NC1(C(=O)O)CCC1; AEEA = NCCOCCOCC(=O)O

Biological target: T1, human GLP-1 receptor (Homo sapiens, UniProt P43220)
T1 construct: expressed in transfected cells; host or cells: membranes of BHK cells (parent BHKTS13), clone FCW467-12A
Assay: Assay (II)(a) GLP-1 receptor binding, 125I-GLP-1 displacement SPA on BHK membranes
Conditions: without presence of serum albumin; read-out: GLP-1R IC50 (nM) [Assay (II)(a)]
Outline: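 Membranes from BHK cells (clone FCW467-12A) stably expressing human GLP-1R were incubated with serially diluted compounds (8×10EE-13 to 8×10EE-7 M before addition) and [125I]-GLP-1-(7-36)NH2 with WGA SPA beads, 2 h at 30° C, pH 7.4. IC50 taken from displacement by non-linear regression. Run at ≤0.001% or 2.0% final serum albumin.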

T1 sequence (P43220 24-463): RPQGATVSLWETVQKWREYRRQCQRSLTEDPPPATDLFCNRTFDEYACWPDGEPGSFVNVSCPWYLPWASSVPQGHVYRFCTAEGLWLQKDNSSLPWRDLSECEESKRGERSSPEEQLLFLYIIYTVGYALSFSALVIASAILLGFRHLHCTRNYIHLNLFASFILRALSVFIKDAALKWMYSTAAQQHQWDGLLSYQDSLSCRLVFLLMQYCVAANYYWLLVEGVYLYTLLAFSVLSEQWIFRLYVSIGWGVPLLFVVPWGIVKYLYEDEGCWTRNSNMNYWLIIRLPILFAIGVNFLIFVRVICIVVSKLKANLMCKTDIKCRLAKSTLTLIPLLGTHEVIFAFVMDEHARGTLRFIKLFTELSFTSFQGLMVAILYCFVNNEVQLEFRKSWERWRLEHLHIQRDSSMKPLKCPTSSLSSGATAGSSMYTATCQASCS

- IC50: 0.1 nM
Compound: CC[C@H](C)[C@H](NC(=O)[C@H](CC(C)C)NC(=O)[C@H](Cc1c[nH]c2ccccc12)NC(=O)[C@H](CCC(N)=O)NC(=O)[C@@H](NC(=O)[C@H](Cc1ccccc1)NC(=O)[C@H](CCC(=O)O)NC(=O)[C@H](CCCNC(=N)N)NC(=O)[C@H](C)NC(=O)[C@H](CCCNC(=N)N)NC(=O)[C@H](CCCNC(=N)N)NC(=O)[C@H](CO)NC(=O)[C@H](CCC(=O)O)NC(=O)[C@H](CC(C)C)NC(=O)[C@H](Cc1ccc(O)cc1)NC(=O)[C@H](CCCNC(=N)N)NC(=O)[C@H](CO)NC(=O)[C@H](CC(C)C)NC(=O)[C@H](CC(=O)O)NC(=O)[C@H](CO)NC(=O)[C@@H](NC(=O)[C@H](Cc1ccccc1)NC(=O)[C@@H](NC(=O)CNC(=O)[C@H](CCC(N)=O)NC(=O)C1(NC(=O)[C@@H](N)Cc2c[nH]cn2)CCC1)[C@@H](C)O)[C@@H](C)O)C(C)C)C(=O)N[C@@H](CCCCNC(=O)CC[C@H](NC(=O)CC[C@H](NC(=O)COCCOCCNC(=O)COCCOCCNC(=O)CC[C@H](NC(=O)CC[C@H](NC(=O)CCCCCCCCCCCCCCCCC(=O)O)C(=O)O)C(=O)O)C(=O)O)C(=O)O)C(=O)N[C@H](C(N)=O)[C@@H](C)O [Chem. 17, N^ε28-[(4S)-4-carboxy-4-[[(4S)-4-carboxy-4-[[2-[2 [2-[[2-[2-[2-[[(4S)-4-carboxy-4-[[(4S)-4-carboxy-4-(17-carboxyheptadecanoylamino)butanoyl]amino]butanoyl]amino]ethoxy]ethoxy]acetyl]amino]ethoxy]ethoxy]acetyl]amino]butanoyl]amino]butanoyl]-[Acb2,Leu10,Arg12,Glu15,Arg20,Glu21,Ile27,Lys28]-Glucagon amide] (H-H[Ac4c]QGTFTSDLSRYLESRRAREFVQWLIK([γGlu-γGlu-AEEA-AEEA-γGlu-γGlu-C18 diacid])T-NH2)
